Source: publication PMC5053573, “Structure-Based Design of Tetrahydroisoquinoline-7-carboxamides as Selective Discoidin Domain Receptor 1 (DDR1) Inhibitors” (Journal of Medicinal Chemistry, 2016)

Assays:
Assay in all cases: biochemical
Conditions in all cases: read-out: %Ctrl @ 1000nM
PKN1 = PKN1 (Homo sapiens, UniProt Q16512)
p38-delta = target: T1, p38-delta (Homo sapiens, UniProt O15264)
T1 construct: gene MAPK13

BTK = BTK (Homo sapiens, UniProt Q06187)
MEK3 = target: T2, MEK3 (Homo sapiens, UniProt P46734)
T2 construct: gene MAP2K3

PRKCH = PRKCH (Homo sapiens, UniProt P24723)
STK39 = STK39 (Homo sapiens, UniProt Q9UEW8)
AURKC = AURKC (Homo sapiens, UniProt Q9UQB9)
[1] = target: EGFR(L747-S752del, P753S) (Homo sapiens, UniProt P00533, DEL747-752/P753S)
RIPK1 = RIPK1 (Homo sapiens, UniProt Q13546)
MAP4K5 = MAP4K5 (Homo sapiens, UniProt Q9Y4K4)
DMPK = DMPK (Homo sapiens, UniProt Q09013)
MAP3K2 = MAP3K2 (Homo sapiens, UniProt Q9Y2U5)
IKK-epsilon = target: T3, IKK-epsilon (Homo sapiens, UniProt Q14164)
T3 construct: gene IKBKE

NEK5 = NEK5 (Homo sapiens, UniProt Q6P3R8)
QSK = target: T4, QSK (Homo sapiens, UniProt Q9Y2K2)
T4 construct: gene SIK3

MET(M1250T) = MET(M1250T) (Homo sapiens, UniProt P08581, M1250T)
DMPK2 = target: T5, DMPK2 (Homo sapiens, UniProt Q6DT37)
T5 construct: gene CDC42BPG

SRPK3 = SRPK3 (Homo sapiens, UniProt Q9UPE1)
PIM2 = PIM2 (Homo sapiens, UniProt Q9P1W9)
EGFR = EGFR (Homo sapiens, UniProt P00533)
HIPK1 = HIPK1 (Homo sapiens, UniProt Q86Z02)
ERK8 = target: T6, ERK8 (Homo sapiens, UniProt Q8TD08)
T6 construct: gene MAPK15

CAMK2A = CAMK2A (Homo sapiens, UniProt Q9UQM7)
EIF2AK1 = EIF2AK1 (Homo sapiens, UniProt Q9BQI3)
IRAK4 = IRAK4 (Homo sapiens, UniProt Q9NWZ3)
AURKA = AURKA (Homo sapiens, UniProt O14965)
OSR1 = target: T7, OSR1 (Homo sapiens, UniProt O95747)
T7 construct: gene OXSR1

CDKL3 = CDKL3 (Homo sapiens, UniProt Q8IVW4)
PIK3CA(E545A) = PIK3CA(E545A) (Homo sapiens, UniProt P42336, E545A)
CDC2L2 = target: T8, CDC2L2 (Homo sapiens, UniProt Q9UQ88)
T8 construct: gene CDK11A

TGFBR1 = TGFBR1 (Homo sapiens, UniProt P36897)
RET(V804L) = RET(V804L) (Homo sapiens, UniProt P07949, V804L)
EPHB1 = EPHB1 (Homo sapiens, UniProt P54762)
FLT3(ITD,D835V) = FLT3(ITD,D835V) (Homo sapiens, UniProt P36888, D835V/ITD)
MET(Y1235D) = MET(Y1235D) (Homo sapiens, UniProt P08581, Y1235D)

T4 sequence (Q9Y2K2 whole entry): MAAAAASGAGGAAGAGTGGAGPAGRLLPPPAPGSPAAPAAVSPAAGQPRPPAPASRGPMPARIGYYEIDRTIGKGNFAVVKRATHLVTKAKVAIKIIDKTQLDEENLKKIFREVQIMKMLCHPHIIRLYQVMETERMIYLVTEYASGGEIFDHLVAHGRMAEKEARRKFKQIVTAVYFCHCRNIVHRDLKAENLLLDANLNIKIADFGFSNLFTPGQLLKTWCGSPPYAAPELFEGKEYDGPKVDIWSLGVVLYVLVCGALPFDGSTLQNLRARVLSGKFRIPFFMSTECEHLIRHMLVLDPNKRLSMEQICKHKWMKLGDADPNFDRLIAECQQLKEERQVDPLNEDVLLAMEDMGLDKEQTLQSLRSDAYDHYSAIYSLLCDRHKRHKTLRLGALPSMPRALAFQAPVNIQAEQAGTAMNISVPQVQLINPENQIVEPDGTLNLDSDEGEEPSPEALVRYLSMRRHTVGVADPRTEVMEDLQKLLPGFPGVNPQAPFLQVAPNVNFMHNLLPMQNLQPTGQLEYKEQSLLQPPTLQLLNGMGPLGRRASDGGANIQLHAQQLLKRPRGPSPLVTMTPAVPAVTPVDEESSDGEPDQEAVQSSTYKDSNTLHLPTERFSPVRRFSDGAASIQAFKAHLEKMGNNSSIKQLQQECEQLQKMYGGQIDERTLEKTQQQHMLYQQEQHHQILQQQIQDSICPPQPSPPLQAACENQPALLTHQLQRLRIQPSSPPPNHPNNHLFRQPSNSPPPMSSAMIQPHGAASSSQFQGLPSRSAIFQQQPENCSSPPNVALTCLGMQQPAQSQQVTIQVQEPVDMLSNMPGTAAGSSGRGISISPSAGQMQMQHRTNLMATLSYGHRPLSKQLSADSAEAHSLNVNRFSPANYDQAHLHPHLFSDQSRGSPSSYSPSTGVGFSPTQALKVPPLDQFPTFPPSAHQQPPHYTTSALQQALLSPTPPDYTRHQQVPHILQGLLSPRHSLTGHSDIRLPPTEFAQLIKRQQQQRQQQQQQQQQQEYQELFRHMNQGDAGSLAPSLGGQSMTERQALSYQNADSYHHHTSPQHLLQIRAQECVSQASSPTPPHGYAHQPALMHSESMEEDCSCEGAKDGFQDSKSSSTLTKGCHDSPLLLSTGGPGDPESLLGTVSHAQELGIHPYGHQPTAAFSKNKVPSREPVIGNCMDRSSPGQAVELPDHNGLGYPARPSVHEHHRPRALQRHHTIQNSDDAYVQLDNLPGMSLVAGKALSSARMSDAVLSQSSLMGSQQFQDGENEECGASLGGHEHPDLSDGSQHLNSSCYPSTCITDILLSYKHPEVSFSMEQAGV
Chain of AURKC (Q9UQB9 whole entry): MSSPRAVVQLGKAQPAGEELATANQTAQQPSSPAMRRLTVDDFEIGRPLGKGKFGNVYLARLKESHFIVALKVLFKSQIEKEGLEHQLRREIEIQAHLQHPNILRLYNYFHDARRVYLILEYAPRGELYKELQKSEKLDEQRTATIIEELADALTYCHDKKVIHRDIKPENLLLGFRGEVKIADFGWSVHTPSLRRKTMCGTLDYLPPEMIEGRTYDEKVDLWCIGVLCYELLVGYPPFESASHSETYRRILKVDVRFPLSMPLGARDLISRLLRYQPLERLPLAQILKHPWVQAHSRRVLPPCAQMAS
T7 sequence (O95747 whole entry): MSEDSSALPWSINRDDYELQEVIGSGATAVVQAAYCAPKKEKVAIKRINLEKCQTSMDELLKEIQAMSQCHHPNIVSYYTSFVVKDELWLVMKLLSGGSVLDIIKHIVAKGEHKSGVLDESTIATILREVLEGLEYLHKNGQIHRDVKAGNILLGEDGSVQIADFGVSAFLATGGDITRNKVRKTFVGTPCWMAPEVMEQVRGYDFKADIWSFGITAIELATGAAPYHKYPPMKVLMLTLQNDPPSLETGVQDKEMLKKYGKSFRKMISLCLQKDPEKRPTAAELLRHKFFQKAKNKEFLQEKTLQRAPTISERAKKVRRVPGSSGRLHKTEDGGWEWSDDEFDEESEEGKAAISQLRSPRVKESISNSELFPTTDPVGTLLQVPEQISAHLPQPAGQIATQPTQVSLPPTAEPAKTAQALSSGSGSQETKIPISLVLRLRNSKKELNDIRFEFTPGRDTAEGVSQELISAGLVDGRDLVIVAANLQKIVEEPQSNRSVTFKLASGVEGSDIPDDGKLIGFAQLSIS
Chain of TGFBR1 (P36897 whole entry): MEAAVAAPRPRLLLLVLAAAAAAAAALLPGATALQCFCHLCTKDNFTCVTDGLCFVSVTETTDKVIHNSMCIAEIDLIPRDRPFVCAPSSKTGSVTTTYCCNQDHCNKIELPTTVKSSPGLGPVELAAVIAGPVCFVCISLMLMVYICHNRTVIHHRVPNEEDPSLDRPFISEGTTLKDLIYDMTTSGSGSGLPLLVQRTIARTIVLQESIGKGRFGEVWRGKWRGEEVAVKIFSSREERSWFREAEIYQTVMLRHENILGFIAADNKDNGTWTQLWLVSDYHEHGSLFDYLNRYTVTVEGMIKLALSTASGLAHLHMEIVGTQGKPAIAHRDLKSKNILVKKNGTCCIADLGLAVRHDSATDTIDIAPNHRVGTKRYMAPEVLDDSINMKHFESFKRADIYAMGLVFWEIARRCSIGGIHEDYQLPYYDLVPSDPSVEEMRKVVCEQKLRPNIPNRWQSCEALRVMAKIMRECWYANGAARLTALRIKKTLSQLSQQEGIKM
Chain of MAP4K5 (Q9Y4K4 whole entry): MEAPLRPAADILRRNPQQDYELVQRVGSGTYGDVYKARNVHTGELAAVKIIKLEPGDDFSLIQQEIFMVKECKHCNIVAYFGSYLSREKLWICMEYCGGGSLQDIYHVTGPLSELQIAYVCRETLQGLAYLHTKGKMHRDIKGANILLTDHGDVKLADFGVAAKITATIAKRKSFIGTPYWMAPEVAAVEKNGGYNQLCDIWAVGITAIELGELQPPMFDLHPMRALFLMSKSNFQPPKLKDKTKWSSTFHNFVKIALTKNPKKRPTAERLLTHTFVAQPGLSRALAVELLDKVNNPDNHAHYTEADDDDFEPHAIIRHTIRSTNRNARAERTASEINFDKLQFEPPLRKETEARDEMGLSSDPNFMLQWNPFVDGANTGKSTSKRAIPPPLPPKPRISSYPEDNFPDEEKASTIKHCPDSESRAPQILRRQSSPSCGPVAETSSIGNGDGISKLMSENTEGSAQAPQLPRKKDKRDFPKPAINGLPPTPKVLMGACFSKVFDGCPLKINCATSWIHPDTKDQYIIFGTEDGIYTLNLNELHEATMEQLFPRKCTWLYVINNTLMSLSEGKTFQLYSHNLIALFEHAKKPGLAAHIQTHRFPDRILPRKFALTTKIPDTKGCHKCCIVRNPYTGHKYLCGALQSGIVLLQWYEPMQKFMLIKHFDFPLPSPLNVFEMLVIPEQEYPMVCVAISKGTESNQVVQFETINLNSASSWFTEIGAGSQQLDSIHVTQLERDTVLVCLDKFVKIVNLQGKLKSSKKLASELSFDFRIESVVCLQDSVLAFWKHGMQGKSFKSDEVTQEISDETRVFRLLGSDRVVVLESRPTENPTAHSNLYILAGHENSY
Chain of EGFR (P00533 whole entry): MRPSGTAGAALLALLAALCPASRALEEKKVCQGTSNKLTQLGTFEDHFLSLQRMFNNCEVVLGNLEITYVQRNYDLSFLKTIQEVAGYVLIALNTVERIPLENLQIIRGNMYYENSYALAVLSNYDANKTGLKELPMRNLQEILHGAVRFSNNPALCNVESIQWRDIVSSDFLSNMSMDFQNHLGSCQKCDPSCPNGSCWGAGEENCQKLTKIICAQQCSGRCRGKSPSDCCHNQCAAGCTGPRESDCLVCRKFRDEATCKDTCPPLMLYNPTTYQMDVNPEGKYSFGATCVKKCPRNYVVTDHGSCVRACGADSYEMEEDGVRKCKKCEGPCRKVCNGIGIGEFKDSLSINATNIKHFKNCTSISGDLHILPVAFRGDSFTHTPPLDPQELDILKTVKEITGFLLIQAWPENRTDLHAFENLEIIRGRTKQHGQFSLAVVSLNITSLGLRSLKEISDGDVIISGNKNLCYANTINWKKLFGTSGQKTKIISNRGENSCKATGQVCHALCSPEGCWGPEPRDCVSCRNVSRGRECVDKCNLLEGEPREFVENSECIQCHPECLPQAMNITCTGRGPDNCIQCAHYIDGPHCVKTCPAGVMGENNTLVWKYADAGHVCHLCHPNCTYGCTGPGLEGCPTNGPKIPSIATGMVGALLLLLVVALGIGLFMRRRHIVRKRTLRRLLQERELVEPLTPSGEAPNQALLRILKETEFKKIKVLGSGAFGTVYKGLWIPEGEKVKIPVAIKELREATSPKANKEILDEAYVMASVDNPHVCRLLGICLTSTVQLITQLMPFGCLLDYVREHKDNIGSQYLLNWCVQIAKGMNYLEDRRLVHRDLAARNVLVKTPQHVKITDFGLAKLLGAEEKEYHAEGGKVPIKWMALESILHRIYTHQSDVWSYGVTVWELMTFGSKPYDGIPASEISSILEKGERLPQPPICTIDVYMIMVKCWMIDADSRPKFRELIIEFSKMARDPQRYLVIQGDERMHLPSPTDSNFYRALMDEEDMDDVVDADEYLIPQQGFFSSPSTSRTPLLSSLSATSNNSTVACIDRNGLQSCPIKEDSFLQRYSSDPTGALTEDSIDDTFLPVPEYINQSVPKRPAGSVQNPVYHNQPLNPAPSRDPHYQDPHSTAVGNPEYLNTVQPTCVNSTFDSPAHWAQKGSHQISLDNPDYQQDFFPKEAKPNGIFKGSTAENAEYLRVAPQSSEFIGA
T2 sequence (P46734 whole entry): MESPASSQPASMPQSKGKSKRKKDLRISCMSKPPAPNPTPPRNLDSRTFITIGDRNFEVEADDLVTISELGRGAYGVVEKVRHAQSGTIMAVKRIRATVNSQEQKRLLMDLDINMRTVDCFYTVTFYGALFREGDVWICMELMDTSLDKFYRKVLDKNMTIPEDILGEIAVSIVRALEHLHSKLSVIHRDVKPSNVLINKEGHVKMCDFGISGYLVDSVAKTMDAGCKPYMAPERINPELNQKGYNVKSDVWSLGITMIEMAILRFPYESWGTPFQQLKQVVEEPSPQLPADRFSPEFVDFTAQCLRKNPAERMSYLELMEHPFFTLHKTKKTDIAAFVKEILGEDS

Cc1cn(-c2cc(NC(=O)c3ccc4c(c3)CN(c3cncnc3)C[C@@H]4C)cc(C(F)(F)F)c2)cn1 [Compound 6j]
remaining activity at 1 µM (PKN1): 100%
remaining activity at 1 µM (p38-delta): 70%
remaining activity at 1 µM (BTK): 100%
remaining activity at 1 µM (MEK3): 100%
remaining activity at 1 µM (PRKCH): 97%
remaining activity at 1 µM (STK39): 100%
remaining activity at 1 µM (AURKC): 100%
remaining activity at 1 µM [1]: 83%
remaining activity at 1 µM (RIPK1): 98%
remaining activity at 1 µM (MAP4K5): 95%
remaining activity at 1 µM (DMPK): 100%
remaining activity at 1 µM (MAP3K2): 92%
remaining activity at 1 µM (IKK-epsilon): 86%
remaining activity at 1 µM (NEK5): 95%
remaining activity at 1 µM (QSK): 94%
remaining activity at 1 µM (MET(M1250T)): 84%
remaining activity at 1 µM (DMPK2): 100%
remaining activity at 1 µM (SRPK3): 93%
remaining activity at 1 µM (PIM2): 97%
remaining activity at 1 µM (EGFR): 94%
remaining activity at 1 µM (HIPK1): 85%
remaining activity at 1 µM (ERK8): 84%
remaining activity at 1 µM (CAMK2A): 97%
remaining activity at 1 µM (EIF2AK1): 92%
remaining activity at 1 µM (IRAK4): 100%
remaining activity at 1 µM (AURKA): 96%
remaining activity at 1 µM (OSR1): 100%
remaining activity at 1 µM (CDKL3): 100%
remaining activity at 1 µM (PIK3CA(E545A)): 86%
remaining activity at 1 µM (CDC2L2): 97%
remaining activity at 1 µM (TGFBR1): 96%
remaining activity at 1 µM (RET(V804L)): 94%
remaining activity at 1 µM (EPHB1): 72%
remaining activity at 1 µM (FLT3(ITD,D835V)): 23%
remaining activity at 1 µM (MET(Y1235D)): 68%
